In ChEMBL document CHEMBL5500393, “Discovery and Optimization of Novel SaFabI Inhibitors as Specific Therapeutic Agents for MRSA Infection” (J Med Chem, 2024):
In brackets after ≈: the same amount, converted by molar mass.

How the values were obtained:
Candida albicans = assay: Antimicrobial activity against Candida albicans SC5314 measured after 48 hrs by CLSI protocol based microdilution method; format: functional
Staphylococcus aureus [1] = assay: Antimicrobial activity against methicillin-susceptible Staphylococcus aureus ATCC25923 measured after 24 hrs by CLSI protocol based microdilution method; format: functional
Staphylococcus aureus [2] = assay: Antimicrobial activity against […] Staphylococcus aureus ATCC43300 measured after 24 hrs by CLSI protocol based microdilution method; format: functional
Pseudomonas aeruginosa = assay: Antimicrobial activity against Pseudomonas aeruginosa PAO1 measured after 24 hrs by CLSI protocol based microdilution method; format: functional
Staphylococcus aureus [3] = assay: Antimicrobial activity against methicillin-susceptible Staphylococcus aureus ATCC29213 measured after 24 hrs by CLSI protocol based microdilution method; format: functional
Escherichia coli = assay: Antimicrobial activity against Escherichia coli ATCC25922 measured after 24 hrs by CLSI protocol based microdilution method; format: functional
Staphylococcus aureus [4] = assay: Antimicrobial activity against […] Staphylococcus aureus USA300 measured after 24 hrs by CLSI protocol based microdilution method; format: functional
Enterococcus faecalis = assay: Antimicrobial activity against Enterococcus faecalis ATCC29212 measured after 24 hrs by CLSI protocol based microdilution method; format: functional
[5] = target: T1, Enoyl-[acyl-carrier-protein] reductase [NADPH] FabI (Staphylococcus aureus) (UniProt Q6GI75); assay: Inhibition of N-terminal his 6 tagged Staphylococcus aureus Fabi (1 to […] residues) expressed in Escherichia coli BL21 at 10 uM incubated for 30 mins in presence of NADPH by fluorescence based microplate reader analysis relative to control
T1 sequence (whole entry): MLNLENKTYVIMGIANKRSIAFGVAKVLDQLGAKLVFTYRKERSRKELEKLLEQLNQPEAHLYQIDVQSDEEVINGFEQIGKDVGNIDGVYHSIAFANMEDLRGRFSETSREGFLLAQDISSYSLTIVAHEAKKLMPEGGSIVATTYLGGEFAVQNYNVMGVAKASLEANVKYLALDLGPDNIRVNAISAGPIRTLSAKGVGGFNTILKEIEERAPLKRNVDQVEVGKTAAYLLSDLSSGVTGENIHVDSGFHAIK

Staphylococcus aureus [6] = assay: Antimicrobial activity against […] Staphylococcus aureus ATCC33591 measured after 24 hrs by CLSI protocol based microdilution method; format: functional
Enterococcus faecium = assay: Antimicrobial activity against Enterococcus faecium ATCC19434 measured after 24 hrs by CLSI protocol based microdilution method; format: functional
[7] = Inhibition of N-terminal his 6 tagged Escherichia coli Fabi (1 to 789 residues) expressed in Escherichia coli BL21 incubated for 30 mins in presence of NADH by fluorescence based microplate reader analysis
Staphylococcus aureus [8] = assay: Antimicrobial activity against […] Staphylococcus aureus NRS271 measured after 24 hrs by CLSI protocol based microdilution method; format: functional
[9] = Inhibition of N-terminal his 6 tagged Acinetobacter baumannii Fabi (1 to 804 residues) expressed in Escherichia coli BL21 incubated for 30 mins in presence of NADH by fluorescence based microplate reader analysis
Acinetobacter baumannii = assay: Antimicrobial activity against Acinetobacter baumannii ATCC19606 measured after 24 hrs by CLSI protocol based microdilution method; format: functional
[10] = target: T1, Enoyl-[acyl-carrier-protein] reductase [NADPH] FabI (Staphylococcus aureus); assay: Inhibition of N-terminal his 6 tagged Staphylococcus aureus Fabi (1 to […] residues) expressed in Escherichia coli BL21 at 1 uM incubated for 30 mins in presence of NADPH by fluorescence based microplate reader analysis relative to control
[11] = target: T2, Enoyl-[acyl-carrier-protein] reductase [NADPH] FabI (Staphylococcus aureus, UniProt Q6GI75); assay: Inhibition of N-terminal his 6 tagged Staphylococcus aureus Fabi (1 to […] residues) expressed in Escherichia coli BL21 incubated for 30 mins in presence of NADPH by fluorescence based microplate reader analysis
T2 sequence (Q6GI75 whole entry): T1 sequence (whole entry)

Row | SMILES | MIC (Candida albicans) [µg/mL] | MIC (Staphylococcus aureus [1]) [µg/mL] | MIC (Staphylococcus aureus [2]) [µg/mL] | MIC (Pseudomonas aeruginosa) [µg/mL] | MIC (Staphylococcus aureus [3]) [µg/mL] | MIC (Escherichia coli) [µg/mL] | MIC (Staphylococcus aureus [4]) [µg/mL] | MIC (Enterococcus faecalis) [µg/mL] | inhibition [5] [%] | MIC (Staphylococcus aureus [6]) [µg/mL] | MIC (Enterococcus faecium) [µg/mL] | IC50 [7] [nM] | MIC (Staphylococcus aureus [8]) [µg/mL] | IC50 [9] [nM] | MIC (Acinetobacter baumannii) [µg/mL] | inhibition [10] [%] | IC50 [11] [nM]
1 | Cn1c(C2CC(=O)N(c3cccc(Br)c3F)C2)nc2ccccc21 (configuration not stated) | > 32 | 2 (≈ 5.15 µM) | 4 (≈ 10.3 µM) | > 32 | 2 (≈ 5.15 µM) | > 32 | 4 (≈ 10.3 µM) | > 32 | 95.3 | 4 (≈ 10.3 µM) | > 32 | 35.9 | 8 (≈ 20.6 µM) | 266 | > 32 | 71.2 | 482
2 | Cc1c(Br)cccc1N1CC(c2nc3ccccc3n2C(C)C)CC1=O (configuration not stated) | > 32 | 16 (≈ 38.8 µM) | 16 (≈ 38.8 µM) | > 32 | 8 (≈ 19.4 µM) | > 32 | 16 (≈ 38.8 µM) | > 32 | 87 | 16 (≈ 38.8 µM) | > 32 |  | 32 (≈ 77.6 µM) |  | > 32 | 21.1 | 1730
3 | Cc1cccc(N2CC(c3nc4ccccc4n3C)CC2=O)c1Br (configuration not stated) | > 32 | 8 (≈ 20.8 µM) | 32 (≈ 83.3 µM) | > 32 | 16 (≈ 41.6 µM) | > 32 | 16 (≈ 41.6 µM) | > 32 | 92.6 | 16 (≈ 41.6 µM) | > 32 |  | 32 (≈ 83.3 µM) |  | > 32 | 30.1 | 1690
4 | Cn1c(C2CC(=O)N(c3cccc(F)c3Br)C2)nc2ccccc21 (configuration not stated) | > 32 | > 32 | > 32 | > 32 | 32 (≈ 82.4 µM) | > 32 | 32 (≈ 82.4 µM) | > 32 | 83 | 16 (≈ 41.2 µM) | > 32 |  | > 32 |  | > 32 | 23.5 | 2730
5 | Cc1c(N2CC(c3nc4ccccc4n3C)CC2=O)cccc1C(F)(F)F (configuration not stated) | > 32 | 8 (≈ 21.4 µM) | 4 (≈ 10.7 µM) | > 32 | 4 (≈ 10.7 µM) | > 32 | 8 (≈ 21.4 µM) | > 32 | 93.9 | 4 (≈ 10.7 µM) | > 32 |  | 8 (≈ 21.4 µM) |  | > 32 | 66.1 | 632
6 | Cc1ccccc1N1CC(c2nc3ccccc3n2C)CC1=O (configuration not stated) | > 32 | 32 (≈ 105 µM) | 32 (≈ 105 µM) | > 32 | 16 (≈ 52.4 µM) | > 32 | 32 (≈ 105 µM) | > 32 | 85.2 | 16 (≈ 52.4 µM) | > 32 |  | 16 (≈ 52.4 µM) |  | > 32 | 18.3 | 2410
